Values of other authors in PMC10046020, “In Silico Screening and Optimization of Cell-Penetrating Peptides Using Deep Learning Methods” (Biomolecules, 2023).

Settings: Spreadsheet S1: 150 CPP and 150 non-CPP peptides collected from CellPPD, MLCPP, CPPsite 2.0, Lifetein and other publications; cited from earlier work
Excerpt: Supplement biomolecules-13-00522-s001.zip/biomolecules-2162660_Supplementary Spreadsheets S1 Test Set.csv, table | column: class || Supplement biomolecules-13-00522-s001.zip/biomolecules-2162660_Supplementary Spreadsheets S2 Train Set.csv, table | column: class

Substance	class (CPP / Non-CPP), Test Set
YGRKKRRQRRRPPLRKKKKKH	CPP
GRKKRRERRRPPERKC	CPP
GWTNLSAGYLLGPPPGFSPFR	Non-CPP
DVVRVWFCNRRQKGKR	CPP
CKYGRKKRRQRRR	CPP
AGYLLGKTNLKALAALAKKIL	CPP
RRLTLRQLLGLGSRRRRRSR	CPP
RRRRRRRRRRWWWWWW	CPP
ACRDRFRRCPADRRLCG	CPP
LRHHLRHLLRHLRHLLRHLRHHLRHLLRH	CPP
ARRRCSDRFRNCPADEALCGRRR	CPP
GRKKRRQ	CPP
GAPRLVLLFSGKRKSGKDFVTEA	Non-CPP
LLIILRRPIRKQAHAHSK	CPP
GRGDGPRRKKKKGPRRKKKKGPRR	CPP
KKLSECLKRIGVELDS	Non-CPP
CVKLNDGHFMPVLGFGTYAPPEVPRSKALEVTKLA	Non-CPP
TRSSRAGLQFPVGRVIIRLLRK	CPP
GWTLNSAGYLLEPHAI	Non-CPP
LVVLGKLYGRKKRRQRRR	CPP
GWTLNSAGYLNGKFLPLILRKIVTAL	Non-CPP
TERQGKIWFQNRRMK	Non-CPP
FGCKNFFWKTFTSC	Non-CPP

Substance	class (CPP / Non-CPP), Test Set
KKRTLRKNDRKKRC	CPP
PDEIGGKFPTAYVQDYLINPE	Non-CPP
KLFNGNEVCLDPKEKWVQKVVQIFLK	Non-CPP
APVTGAHMAYVDYWVPCQFTECSGEYVTEEYRKA	Non-CPP
FVPIFTHSELQKIREKERNKGQ	Non-CPP
RLHRRLHRRLHRLHRRLHRLHRRLHRRLH	CPP
CVCVKTTSLVRPRHI	Non-CPP
MDMVAIDDQDYIMCHF	Non-CPP
WELVVAYGRKKRRQRRR	CPP
ACRGRGRRCGSGRRSCG	CPP
TAMRAVDKLLLHLKKLFREGQFNRNFESIIICRDRT	CPP
RPKRPTTLNLFPQVPRSQDT	CPP
RKKRRQRRRGKKKKKKKKKKKKKKKGRKKRRQRRR	CPP
KKKKKKKKK	CPP
KLALKALKAALKPA	Non-CPP
KLAAKLALKALKAA	Non-CPP
CPLDQFECGGDEPG	Non-CPP
RKGWFKAMKSIAKFIAKEKLKEHL	CPP
YGRKKRRQRRRYGRKKRRQRRR	CPP
CAETCIYIPCFTEAVGCKCKDKVCYKN	Non-CPP
FLGVVFKLASKVFPAVFGKV	Non-CPP
GGVCPKILRRCRRDSDCPGACICRGNGYCGSGSD	CPP
LMLRTVGYKFHCSLPVNAVHCSLK	Non-CPP

Substance	class (CPP / Non-CPP), Test Set
LLGKGNLKALAALAKKIL	Non-CPP
DWLKAFYDKVAEKLKEAF	CPP
VKRFKKFFRKLKKLV	CPP
DFDMLRCMLGRVYRPCWQV	Non-CPP
LELELELELELELELELELE	CPP
LNSAGYLLGKPKALAALAK	Non-CPP
LKKLAELAHKLLKLG	CPP
GIVEQCCDTPCSLYDPENYCN	Non-CPP
CREKAKKLFKKILKKL	CPP
LLKTTELLKTTELLKTTS	Non-CPP
AKRGARSTA	CPP
KLALKLACKALKAA	Non-CPP
ILRRRIRKQAHFHSK	Non-CPP
RQIKIWFQNRRMKWKKGG	CPP
RRRRRRRRRETWWETWWTEW	CPP
LKKLLKLLKKLLKLAG	CPP
CRKKRRQRRR	CPP
EILLPNNYNAYESYKYPGMFIALSK	Non-CPP
IAARIFLRSRQHIKLRHL	Non-CPP
MPVMFYFSARNEVALVLVYFNFMIMMMH	Non-CPP
FITKALGISYGRKKRRQS	Non-CPP
FQAYPCITAYKVMYID	Non-CPP
AAVALLPAVLLALLAKNNLKECGLY	CPP

Same assay, conditions: Spreadsheet S2: peptides collected from CellPPD, MLCPP, CPPsite 2.0, Lifetein and other publications; cited from earlier work

Substance	class (CPP / Non-CPP), Train Set
RRRRRRRGGIYLATALAKWALKQ	CPP

Same assay, conditions: cited from earlier work

Substance	class (CPP / Non-CPP), Test Set
HHHHHHHHH	CPP
KRKRWHW	CPP
QIMISA	Non-CPP
NTCTWLKY	CPP
NYRWRCKNQ	CPP
SARRRRRREW	CPP
RRRRRHHH	CPP
RLLRLLRLL	CPP
CYFQNCPVG	Non-CPP
GSSGMIPFPRV	Non-CPP
RRRRWWWW	CPP
YRDRFAFQPH	CPP
NYQWRCKNQN	CPP
HGWEIHGLLHRA	CPP
FKMHEN	Non-CPP
KNNLKECGLY	CPP
FHFHFRFR	CPP
RKKAAA	CPP
CYFQNCPRG	Non-CPP
NYRWRCK	CPP
YARVRRRGPRRR	CPP
RRRRRRRRC	CPP
KFFKFFKFFK	CPP
KIWFMNRRMK	Non-CPP
